The series is described as follows: refractive index (Na D-line) (dimensionless). The settings on record: 293.15 K; 101.33 kPa; Liquid; Standard Abbe refractometry.

Five compounds from the NIST ThermoML archive (doi:10.1016/j.fluid.2014.08.014) can be followed below.

± gives the expanded uncertainty stated by the source.

On to `CC(C)CO` [2-methyl-1-propanol], for which the refractive index amounted to 1.3955 ± 0.0005.
To `CC(C)(C)O` [2-methylpropan-2-ol] belongs 1.3881 ± 0.0005; to `CCCCOC(C)=O` [butyl ethanoate], 1.3951 ± 0.0005; to `CCO` [ethanol], 1.3616 ± 0.0005.
`O` [water]: the refractive index amounted to 1.3328 ± 0.0005.

As usually defined, the refractive index is the speed of light in vacuum divided by its phase velocity in the sample.
